The source of these data is patent EP4711377A1, “STEROID COMPOUND, PREPARATION METHOD THEREFOR, AND USE THEREOF” (Shujing Biopharma Co., Ltd, priority 2023, dated 2024).

For data set [1], the system named is mice with PTZ-induced convulsions. As to the kind of experiment: in vivo efficacy experiment in PTZ-induced epilepsy mouse model. More on the design: species or system C57 mice. Conditions: for Survival rate: 60 min before PTZ 120 mg/kg s.c., 30 min observation; for Number of clonic seizures / Number of tonic seizures / Clonic seizure latency period / Tonic seizure latency period: Mean ± SEM; for Clonic seizure latency period / Tonic seizure latency period: no seizure in 30 min recorded as 1800 s; for protective effects against acute epileptic seizures: conclusion in words. The protocol: Male C57 mice, purchased from SPF (Suzhou) Biotechnology Co., Ltd.
PTZ: a 120 mg/kg PTZ solution (administration volume: 10 mL/kg) was prepared with normal saline as the solvent.
Test compounds: solutions of the test compounds at 3/1/0.3 mg/kg (administration volume: 10 mL/kg) were prepared with Vehicle in section 1.4 as the solvent.
One hour before the test, the experimental animals were transferred into an operation room for acclimation.
The mice were randomly grouped, marked, and weighed, with 10 mice in each group. At 60 min before PTZ administration, the test compounds and Vehicle were separately orally administered.
The PTZ solution was administered subcutaneously before experimental observation, and this time point was recorded as the observation starting point.
Immediately after PTZ administration, the animals were placed in observation boxes and observed for 30 min. The following observations of the animals were recorded:
Clonic seizure: the animal has a generalized myoclonus that lasts for more than 3 s and is accompanied by falling.
Tonic seizure: the limbs are straightened at a 90° angle to the torso.
All metrology data were expressed as mean ± standard error of mean (Mean ± SEM), and the Prism 8.0 statistical software was used for data testing and analysis.

Another data set deals with GABAa receptor (α1β2γ2) (Homo sapiens, UniProt P14867+P47870). In words: in vitro GABAa receptor (α1β2γ2) cellular activity assay, manual whole-cell patch clamp, enhancement of currents induced by 1 µM GABA. In kind it is cell-based. The settings on record: CHO cells; for activation at 0.1 µM: read-out: Agonist ratio. As for the experimental part:
The cells used in this experiment were derived from a CHO cell line that stably expressed normal GABAa receptor functions after transfection with human GABAa receptor α1, β2, and γ2 subunit cDNAs. The cell line was constructed by B'sys GmbH. The cells were cultured in a medium (purchased from Invitrogen) containing the following components: DMEM culture medium; 10% (v/v) inactivated fetal bovine serum; 5 µg/mL Puromycin; 250 µg/mL Hygromycin B; and 100 µg/mL Zeocin. The cells were grown in culture dishes containing the above medium and cultured in an incubator at 37 °C with 5% CO2. 12 h to 24 h before the electrophysiological experiment, the cells were transferred onto circular glass slides placed in culture dishes, and were grown under the same medium and culture conditions as above. The density of cells on each circular glass slide was required to meet the requirement that the overwhelming majority of cells were independent and individual.
In this experiment, a manual patch-clamp system HEKA EPC10 USB signal amplifier and digital conversion system (purchased from HEKA Electronics, Germany) were used for whole-cell current recording. The circular glass slides with surface-grown CHO GABAa cells (see the cell culture and requirement section above) were taken out from the culture dishes and then placed into an electrophysiological recording chamber under an inverted microscope. The recording chamber was continuously perfused with extracellular fluid (approximately 1-2 mL/min). In the experiment, the whole-cell current recording technique was employed to record chloride ion currents of GABAa channels. 1 µM GABA was used to activate chloride ion currents of GABAa channels on each cell as an initial control (the reason for using 1 µM GABA concentration was that: this concentration was an effective activation concentration for the GABAa ion channel agonist GABA on the cells used in this experiment, falling between 10% and 20%). Unless otherwise specified, the experiment was performed at conventional room temperature (about 25 °C), and only cells meeting the electrophysiological recording criteria were adopted. In the experiment, the cells were ruptured and sealed, and were clamped at -80 mV after entering a whole-cell state. 1 µM GABA acted on the cells through the drug perfusion system to induce chloride ion currents of GABAa channels; the action time was about 4 s, and the current magnitude was used as the initial control value. Subsequently, the cells were perfused and incubated with the test concentration compound for 3 min, and then a mixed solution of 1 µM GABA and the corresponding test concentration compound was applied to act on the cells to induce currents, so as to observe the enhancing effect of the test compound on the currents induced by 1 µM GABA. When the cell state stabilized, the test compound would be applied from low to high concentrations to act on the same cell. In the experiment, to avoid current reduction caused by desensitization of GABAa ion channels, the interval time for the test substance acting on the cells through the drug perfusion system was at least 180 s.
The experimental data were analyzed using data analysis software provided by HEKA Patchmaster, Microsoft Excel, and Graphpad Prism.

Data set [2] in a line: in vivo pharmacokinetic experiment in mice. More on the design: species or system ICR mice. The settings on record: mouse, oral intragastric administration 10 mg/kg, single, plasma. As for the experimental part: Male ICR mice were subjected to oral intragastric administration. The plasma concentrations of the compounds of the present disclosure in the mice were measured, the PK parameters were calculated, and pharmacokinetic evaluation was performed on the compounds of the present disclosure.
Drug preparation: according to the weight of the weighed drug, the preparation volume was calculated; 5% of DMSO and 5% of HS-15 were added sequentially; after the drug was fully dissolved, 90% of a 20% aqueous β-cyclodextrin solution was added, and the mixture was well mixed for later use.
Route of administration: oral intragastric administration, at a dose of 10 mg/kg.
Administration frequency and duration: single administration.
ICR mice were stratified according to body weight and then randomly grouped, with 9 mice per group. The mice were fasted overnight prior to the experiment. The mice were subjected to oral intragastric administration. At 0 h, 0.167 h, 0.333 h, 0.5 h, 1 h, 2 h, 4 h, 6 h, 8 h, 12 h, and 24 h, 50 µL of blood was collected from the fundus vein of each mouse into a sample tube containing heparin sodium as an anticoagulant, and then the tube was placed in wet ice and centrifuged at 4000 r·min^-1 for 10 min. The plasma was separated, and cryopreserved in a refrigerator at -80 °C for testing.
The concentrations of the plasma samples were measured by high-performance liquid chromatography-tandem mass spectrometry (LC-MS/MS). The retention times of the compounds and internal standard, chromatographic acquisitions, and integrals of chromatograms were processed using the software Analyst (AB SCIEX), and statistical analysis of the data was performed using the software Microsoft office. The plasma concentrations were processed using a non-compartmental model of the pharmacokinetic software WinNonlin™ Version 6.3 (Pharsight, Mountain View, CA), and the pharmacokinetic parameters were calculated using a linear log-trapezoidal method. Table 4. Results of pharmacokinetic experiment in mice

Setting [3] is: single concentration 0.1 µM, relative enhancement amplitude of GABAa receptor currents induced by 1 µM GABA.

GABAa receptor (α1β2γ2), sequence (P14867 28-456): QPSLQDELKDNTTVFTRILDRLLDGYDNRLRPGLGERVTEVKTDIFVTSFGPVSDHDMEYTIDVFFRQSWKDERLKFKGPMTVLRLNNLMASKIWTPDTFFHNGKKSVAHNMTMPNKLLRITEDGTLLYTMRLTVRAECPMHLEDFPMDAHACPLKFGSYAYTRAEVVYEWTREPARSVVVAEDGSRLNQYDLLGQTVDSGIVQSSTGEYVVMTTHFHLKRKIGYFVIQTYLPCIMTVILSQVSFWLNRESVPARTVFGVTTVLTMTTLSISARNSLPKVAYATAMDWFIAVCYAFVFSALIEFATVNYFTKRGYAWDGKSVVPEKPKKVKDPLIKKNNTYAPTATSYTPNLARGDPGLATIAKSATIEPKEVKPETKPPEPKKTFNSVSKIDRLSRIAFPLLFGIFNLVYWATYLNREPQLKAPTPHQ
GABAa receptor (α1β2γ2), sequence (P47870 25-512 limits assumed): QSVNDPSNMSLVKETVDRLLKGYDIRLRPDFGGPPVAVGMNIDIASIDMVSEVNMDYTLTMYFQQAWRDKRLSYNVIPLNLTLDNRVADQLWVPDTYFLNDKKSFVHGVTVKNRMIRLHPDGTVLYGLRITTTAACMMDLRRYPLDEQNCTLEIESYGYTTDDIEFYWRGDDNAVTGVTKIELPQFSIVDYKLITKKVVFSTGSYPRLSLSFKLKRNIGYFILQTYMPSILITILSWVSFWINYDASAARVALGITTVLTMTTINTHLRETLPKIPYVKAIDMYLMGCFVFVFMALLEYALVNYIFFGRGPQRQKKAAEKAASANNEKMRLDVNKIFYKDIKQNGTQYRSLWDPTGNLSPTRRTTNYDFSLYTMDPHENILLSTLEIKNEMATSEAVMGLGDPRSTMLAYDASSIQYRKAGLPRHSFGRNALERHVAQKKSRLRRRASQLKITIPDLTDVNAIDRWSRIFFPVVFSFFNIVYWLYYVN
GABAa receptor (α1β2γ2), sequence (P18507 40-475 partner): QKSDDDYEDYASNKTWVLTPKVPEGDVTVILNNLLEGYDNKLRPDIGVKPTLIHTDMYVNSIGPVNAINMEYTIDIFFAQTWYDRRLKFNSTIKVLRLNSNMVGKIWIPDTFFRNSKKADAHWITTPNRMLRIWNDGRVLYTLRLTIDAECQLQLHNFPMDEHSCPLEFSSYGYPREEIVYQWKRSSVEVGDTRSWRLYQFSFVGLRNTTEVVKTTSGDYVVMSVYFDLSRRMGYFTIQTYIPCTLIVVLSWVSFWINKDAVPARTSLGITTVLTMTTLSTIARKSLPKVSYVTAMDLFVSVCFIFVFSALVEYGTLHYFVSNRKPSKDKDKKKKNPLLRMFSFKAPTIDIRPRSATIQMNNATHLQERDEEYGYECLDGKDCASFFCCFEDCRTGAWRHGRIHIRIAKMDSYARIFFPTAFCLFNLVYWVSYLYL

`C[C@@H]1C[C@H](C(=O)Cn2cnnn2)[C@@]2(C)CC[C@H]3[C@@H](CC[C@@H]4C[C@](C)(O)[C@@H](C)C[C@@H]43)[C@H]12` [Example 10, 1-((2S,3S,5R,8R,9R,10S,13S,14S,15R,17S)-3-Hydroxy-2,3,13,15-tetramethylhexadecahydro-1H-cyclopenta[a]phenanthren-17-yl)-2-(1H-tetrazol-1-yl)ethan-1-one]: the Survival rate in data set [1] (dose 3 mg/kg p.o.) was found to be 100%.
Turning to `C[C@@H]1C[C@H](C(=O)Cn2cncn2)[C@@]2(C)CC[C@H]3[C@@H](CC[C@@H]4C[C@](C)(O)[C@@H](C)C[C@@H]43)[C@H]12` [Example 6, 1-((2S,3S,5R,8R,9R,10S,13S,14S,15R,17S)-3-Hydroxy-2,3,13,15-tetramethylhexadecahydro-1H-cyclopenta[a]phenanthren-17-yl)-2-(1H-1,2,4-triazol-1-yl)ethan-1-one], the activation at 0.1 µM at GABAa receptor (α1β2γ2) (setting [3]) stood at 380%. This molecule displayed a Survival rate in data set [1] (dose 1 mg/kg p.o.) of 90%. For the same molecule, in data set [1] (dose 3 mg/kg p.o.), the Survival rate is 100%, the “Number of clonic seizures” value is 0.8±0.2, the “Number of tonic seizures” value was determined as 0.0±0.0 and the “Clonic seizure latency period” value stood at 1132.4 ± 195.9 s. The “Tonic seizure latency period” value in data set [1] (dose 3 mg/kg p.o.) worked out at 1800.0 ± 0.0 s. Further, the “protective effects against acute epileptic seizures” value (shortened to “protective effects”) in data set [1] (low dose (1 mpk)) was “significant protective effects”.
For the molecule `C[C@@H]1C[C@H](C(=O)Cn2ccc(C(F)(F)F)n2)[C@@]2(C)CC[C@H]3[C@@H](CC[C@@H]4C[C@](C)(O)[C@@H](C)C[C@@H]43)[C@H]12` [Example 4, 1-((2S,3S,5R,8R,9R,10S,13S,14S,15R,17S)-3-Hydroxy-2,3,13,15-tetramethylhexadecahydro-1H. cyclopenta[a]phenanthren-17-yl)-2-(3-(trifluoromethyl)-1H-pyrazol-1-yl)ethan-1-one], the Agonist ratio on GABAa receptor (α1β2γ2) (setting [3]) came out at 626%.
For the molecule `C[C@@H]1C[C@H](C(=O)Cn2ncnn2)[C@@]2(C)CC[C@H]3[C@@H](CC[C@@H]4C[C@H](O)[C@@H](C)C[C@@H]43)[C@H]12` [Example 17, 1-((2S,3S,5R,8R,9R,10S,13S,14S,15R,17S)-3-Hydroxy-2,13,15-trimethylhexadecahydro-1H-cyclopenta[a]phenanthren-17-yl)-2-(2H-tetrazol-2-yl)ethan-1-one], the activation at 0.1 µM on GABAa receptor (α1β2γ2) (setting [3]) is 217%.
Turning to “1-((2S,3S,5R,8R,9R,108,13S,14S,15R,17S)-3-Hydroxy-2,3,13,15-tetramethylhexadecahydro-1H-cyclopenta[a]phenanthren-17-yl)-2-(1H-1,2,3-triazol-1-yl)ethan-1-one [Example 8]”, the Survival rate in data set [1] (dose 3 mg/kg p.o.) is 100%.
As a reminder, the AUC(0-t) is exposure summed from dosing to a finite time, without extrapolation to infinity. High values mean more exposure, low ones less exposure. The term Cmax denotes the highest concentration seen after dosing. Usually Tmax stands for the time from dosing to the highest level. The term half-life denotes the time in which the quantity being followed falls by half. Take `C[C@H]1C[C@H]2[C@H](CC[C@@H]3[C@@H]2CC[C@]2(C)[C@@H](C(=O)Cn4cc(C#N)cn4)CC[C@@H]32)C[C@]1(C)O` [Example 19, 1-(2-((2S,3S,5R,8R,9R,10S,13S,14S,17S)-3-Hydroxy-2,3,13-trimethylhexadecahydro-1H-cyclopenta[a]phenanthren-17-yl)-2-oxoethyl)-1H-pyrazole-4-carbonitrile]: in data set [2] (male, ICR), the AUC(0-t) turned out to be 26700 ng·h/mL, the highest level (Cmax) was 1650 ng/mL, the Tmax was found to be 8 h and the half-life is more than 8 h.
For the molecule `C[C@@H]1C[C@H](C(=O)Cn2nccn2)[C@@]2(C)CC[C@H]3[C@@H](CC[C@@H]4C[C@](C)(O)[C@@H](C)C[C@@H]43)[C@H]12` [Example 7, 1-((2S,3S,5R,8R,9R,10S,13S,14S,15R,17S)-3-Hydroxy-2,3,13,15-tetramethylhexadecahydro-1H-cyclopenta[a]phenanthren-17-yl)-2-(2H-1,2,3-triazol-2-yl)ethan-1-one], the activation at 0.1 µM on GABAa receptor (α1β2γ2) (setting [3]) is 794%. The Survival rate in data set [1] (dose 3 mg/kg p.o.) was determined as 100%.
As a reminder, the EC50 is the concentration that produces a half-maximal response. Turning to `C[C@@H]1C[C@H](C(=O)Cn2cc(C#N)cn2)[C@@]2(C)CC[C@H]3[C@@H](CC[C@@H]4C[C@](C)(O)[C@@H](C)C[C@@H]43)[C@H]12` [Example 2, 1-(2-((2S,3S,5R,8R,9R,10S,13S,14S,15R,17S)-3-Hydroxy-2,3,13,15-tetramethylhexadecahydro-1H-cyclopenta[a]phenanthren-17-yl)-2-oxoethyl)-1H-pyrazole-4-carbonitrile], the EC50 on GABAa receptor (α1β2γ2) (positive modulator enhancing GABAa receptor currents induced by 1 µM GABA, read-out: EC50) stood at 22 nM. Further, in data set [2], the AUC(0-t) came to 16600 ng·h/mL, the maximum concentration (Cmax) was found to be 1240 ng/mL, the time of peak concentration (Tmax) was found to be 4 h and the half-life is 7.38 h.
`C[C@@H]1C[C@H](C(=O)Cn2nc(C#N)cc2C#N)[C@@]2(C)CC[C@H]3[C@@H](CC[C@@H]4C[C@](C)(O)[C@@H](C)C[C@@H]43)[C@H]12` [Example 5, 1-(2-((2S,3S,5R,8R,9R,10S,13S,14S,15R,17S)-3-Hydroxy-2,3,13,15-tetramethylhexadecahydro-1H-cyclopenta[a]phenanthren-17-yl)-2-oxoethyl)-1H-pyrazole-3,5-dicarbonitrile]: the Survival rate in data set [1] (dose 0.3 mg/kg p.o.) was found to be 10%. Moreover, in data set [1] (dose 1 mg/kg p.o.), the Survival rate is given as 90%. Besides, in data set [1] (dose 3 mg/kg p.o.), the Survival rate was 100%, the “Number of clonic seizures” value was 0.6±0.2, the “Number of tonic seizures” value was found to be 0.0±0.0 and the “Clonic seizure latency period” value was 1133.7 ± 192.7 s. Moreover, the “Tonic seizure latency period” value in data set [1] (dose 3 mg/kg p.o.) stood at 1800.0 ± 0.0 s. In addition, the “protective effects” value in data set [1] (extremely low dose (0.3 mpk)) is “partial protective effects”. For the same molecule, the “protective effects” value in data set [1] (low dose (1 mpk)) is recorded as “significant protective effects”.
